Measurements: US11590118B2, “Methods and compositions for treating retina-associated disease using CCR3-inhibitors” (ALKAHEST INC., priority 2017, dated 2023)

How the values were obtained:
[1] = biological target: T1, human CCR3 (Homo sapiens, UniProt P51677); assay: human eotaxin-1 induced eosinophil shape change in human whole blood; format: cell-based; settings: read-out: IC50, antagonism of human eotaxin-1 induced eosinophil shape change
T1 sequence (P51677 1-355): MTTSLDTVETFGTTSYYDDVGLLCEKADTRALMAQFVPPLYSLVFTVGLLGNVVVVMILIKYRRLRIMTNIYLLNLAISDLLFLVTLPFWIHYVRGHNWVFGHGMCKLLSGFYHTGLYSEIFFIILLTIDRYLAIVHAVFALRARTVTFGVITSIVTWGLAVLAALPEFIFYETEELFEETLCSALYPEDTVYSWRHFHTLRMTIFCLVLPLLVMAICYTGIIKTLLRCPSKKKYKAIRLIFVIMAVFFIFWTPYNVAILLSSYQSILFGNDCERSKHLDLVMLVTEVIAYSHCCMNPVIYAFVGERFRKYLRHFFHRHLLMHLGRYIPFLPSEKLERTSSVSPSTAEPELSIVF
Procedure: (§1) The antagonistic potency of the investigational product of the invention was determined in several human CCR3-dependent assays (FIG. 1). […] IC50 for a calcium influx assay using human CCR3-transfected CHEM1-Gα15 cells was determined to be 0.9±0.2 nM.

[2] = biological target: T1, human CCR3; assay: receptor binding assay, human CCR3
Procedure: as §1

[3] = test system: subfoveal CNV secondary to wAMD; assay: single-arm, open-label clinical study in treatment-naïve wAMD patients, 4 week regimen; format: in vivo, human; settings: 400 mg orally twice daily for 4 weeks
Procedure: Patients with newly diagnosed (e.g. treatment-naïve) subfoveal CNV that was secondary to wAMD were entered into a single-arm, open-label study. Patients orally took 400 mg of the investigational drug of the invention b.o.d. (twice daily) for 4 weeks and had weekly scheduled visits with the physician. The regimen called for […]. After the end of treatment (EoT) or on withdrawal from the study medication, eligible patients could receive standard of care therapy (anti-VEGF therapy). Patients were followed up twice within 4 weeks after EoT. FIG. 2 is a depiction of the clinical trial design. Boxes V1, V2, V3, V4, and V5 indicate patient visits 1 through 5, respectively. Gaps between the boxes indicate the time in days between visits. The box labeled EoT indicates visit 6, or the end of treatment. Visits 7 and 8 occurred during the follow-up (FU) visits.
The primary endpoint was the change from baseline in central retinal thickness (CRT) as determined by spectral domain optical coherence tomography (SD-OCT) on day 29 (visit no. 6). For all primary and secondary endpoints, the value of the last assessment before first intake of study medication was used as the baseline on day 1 (visit no. 2).
CRT was reported as mean (SEM) in units of μm and time as visit number. The retinal layers and thickness was visualized and measured by SD-OCT, and to those having ordinary of skill in the art and trained using OCT equipment, visualization and measurement of the retinal layers involve well-known techniques. […]
The retinal vasculature of the study eye was evaluated via fluorescein angiography (FA). The change in neovascular leakage by FA was determined on Day 29 (visit 6) compared to baseline. […] N is the number of patients evaluated.
Visual acuity was determined using ETDRS charts over time of treatment. The absolute change in numbers of letters read by patients from their baseline levels was evaluated during visits. […]

[4] = biological target: T2, mouse CCR3 (Mus musculus, UniProt P51678); assay: receptor binding assay, mouse CCR3
T2 sequence (P51678 1-359): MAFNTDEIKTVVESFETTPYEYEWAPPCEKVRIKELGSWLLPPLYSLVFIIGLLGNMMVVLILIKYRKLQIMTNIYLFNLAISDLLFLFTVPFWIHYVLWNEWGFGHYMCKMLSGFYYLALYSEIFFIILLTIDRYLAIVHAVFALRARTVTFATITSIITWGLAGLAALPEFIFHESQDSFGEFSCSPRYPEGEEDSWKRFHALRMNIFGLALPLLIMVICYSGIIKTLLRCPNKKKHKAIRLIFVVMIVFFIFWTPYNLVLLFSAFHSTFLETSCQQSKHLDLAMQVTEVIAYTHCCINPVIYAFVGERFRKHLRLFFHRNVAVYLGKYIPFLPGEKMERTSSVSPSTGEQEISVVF
Procedure: (§2) Potencies for several other mammalian species were also determined in different assays. Species included cynomolgus (macaque) monkeys, mouse, rat, and canines.

[5] = biological target: T1, human CCR3; assay: calcium influx assay using human CCR3-transfected CHEM1-Gα15 cells; format: cell-based
Procedure: as §1

[6] = biological target: T3, rat CCR3 (Rattus norvegicus, UniProt O54814); assay: receptor binding assay, rat CCR3
T3 sequence (O54814 1-359): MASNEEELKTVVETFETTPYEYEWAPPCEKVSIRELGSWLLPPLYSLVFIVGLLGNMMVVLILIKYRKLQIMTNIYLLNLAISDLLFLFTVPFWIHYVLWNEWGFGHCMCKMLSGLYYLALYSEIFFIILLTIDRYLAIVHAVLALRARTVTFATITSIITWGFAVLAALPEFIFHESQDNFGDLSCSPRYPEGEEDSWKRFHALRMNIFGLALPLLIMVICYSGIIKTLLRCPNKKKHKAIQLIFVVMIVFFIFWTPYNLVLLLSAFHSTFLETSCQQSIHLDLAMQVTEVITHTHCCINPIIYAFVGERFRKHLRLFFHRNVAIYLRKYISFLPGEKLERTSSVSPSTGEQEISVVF
Procedure: as §2

IC50 [1]: 42.5 ± 43.5 nM | IC50 [2]: 4 ± 1.8 nM | Ki [2]: 3.2 ± 0.6 nM | IC50 [4]: 87.3 ± 5.6 nM | Ki [4]: 124.3 ± 0.9 nM | IC50 [5]: 0.9 ± 0.2 nM | IC50 [6]: 1720 ± 130 nM | Ki [6]: 1490 ± 128 nM
Compound: Cc1cc(C(=O)N(C)C)cc(NC(=O)[C@H]2CCC(=O)N2C2CCN(Cc3ccc(Cl)c(C)c3)CC2)n1 [investigational product of the invention]
change from baseline in central retinal thickness (CRT) by SD-OCT ([3]; median or mean CRT through the treatment phase): no significant change from baseline | change from baseline in neovascular leakage by fluorescein angiography ([3]; median or mean values through the treatment phase): no significant change from baseline | best corrected visual acuity (BCVA), change in letters read, ETDRS charts ([3]; subset of 8 out of 14 patients, compared to sham control and the larger patient group): significant improvement
